# A melting point compilation (Tetko et al.; mined from patent text by program, amines drawn as free bases though some values may be those of a salt)
row,Compound,melting point
1,"O=C(CN1CCCCC1=O)N1CCC(C2c3ncc(Br)cc3CCc3cc(Cl)cc(Br)c32)CC1 (single isomer, unassigned; (+))",138 to 139 °C
2,CCSc1cc(-c2ccc(Cl)cc2Cl)ccc1C#N,89 to 92 °C
3,COc1cc(/C=C/C(=O)/C=C/C(=O)O)cc(OC)c1OC,152 to 154 °C
4,O=C(CSC1c2ccccc2COc2ccc(OCc3ccc4ccc(Cl)cc4n3)cc21)NS(=O)(=O)c1ccccc1 (configuration not stated),130 to 135 °C
5,C=CCN1CCN(c2cc3c(cc2Cl)c(=O)c(C(=O)O)cn3CC)CC1,212 °C
6,O=C(O)CCCn1c(=O)[nH]c2ccccc21,180 °C
7,COc1ccc(-c2csc(N)n2)cc1OC1CC2CCC1C2 (configuration not stated),168 to 178 °C
8,CC1(C)CC(=O)C(SCc2ccc(F)cc2)=C(O)C1,112 °C
9,CN(C)C=Cc1ncc([N+](=O)[O-])n1CCc1ccncc1,190 to 191 °C
10,Cc1ccc(Sc2c(Sc3ccc(C)cc3)c(Sc3ccc(C)cc3)c(C(O)=NCCO)c(C(=O)O)c2Sc2ccc(C)cc2)cc1,161 to 162 °C
11,Cc1c(SCCCSc2ncccn2)ccnc1CNc1cnc2ccccc2c1,132 to 133 °C
12,CNc1nc(N2CCN(C)CC2)nc2ccc(Cl)cc12,173 to 176 °C
13,COc1ccc(-c2cc(-c3sc(N)nc3-c3cccc(C)n3)ccn2)cc1,188 to 190 °C
14,CC(C)C(S)C(=O)NC1(C(=O)NC(Cc2ccc(-c3ccccc3)cc2)C(=O)O)CCOCC1 (configuration not stated),161 to 163 °C
15,O=C(O)Cc1c(-c2ccccc2)n[nH]c1-c1ccccc1,210 to 211 °C
16,Nc1cccc(S(=O)(=O)Nc2nncs2)c1,155 to 158 °C
17,CC1=C(c2ccncc2)SCC(=O)N1C,139 to 140 °C
18,CC(C)CCSc1cccc(-c2nc(=O)c3ccccc3s2)n1,103 to 105 °C
19,N=c1n[n+]([O-])c2ccccc2n1OC(=O)c1ccccc1,177 to 179 °C
20,O=C(CBr)c1cc(-c2cccc(C(F)(F)F)c2)nc(C(F)(F)F)c1,87 to 89 °C
21,NC(=O)c1cc(Cl)c(N[C@H]2CC[C@H](N)CC2)cc1F,160 to 162 °C
22,CCCCCCCCCCCC=CC(O)C(COC1OC(CO)C(O)C(O)C1O)NC(=O)CCCCCCCCCCCCCCCCC (configuration not stated),209 to 210 °C
23,CCOc1cccnc1CSCCN=C(NC)NC#N,126 to 128 °C
24,CC1(C)CC(=O)c2c(Nc3ccccc3)cn(-c3ccccn3)c2C1,135 to 138 °C
25,Ic1ccc(-c2cc[nH]c2)cc1,164 to 165 °C
26,Nc1cccc(Cn2c(-c3ccc(-c4ccccc4)cc3)ccc2-c2ccccc2Cl)n1,181 to 185 °C
27,O=C(c1ccc(Cl)cc1)c1ccc2c(c1)Cc1ccccc1-2,183 °C
28,COc1ccc(-c2c(Cl)c(CN3CCCC3)nc3sc4c(c23)CCN(Cc2ccccc2)C4)cc1OC,157 to 158 °C

row,Compound,melting point
1,COC(=O)C1Cc2ccccc2CC(C(=O)OC)C1=O (configuration not stated),100 to 110 °C
2,O=C(O)CCCn1c(=O)n2n(c1=O)C(C(=O)O)C=CC2 (configuration not stated),130 °C
3,c1ccc(-c2ccc(-c3cccs3)s2)cc1,116 to 118 °C
4,Brc1ccsc1Cc1c[nH]cn1,212 to 214 °C
5,CN1C2CCC1CC(NC(=O)OC(C)(C)C)C2 (configuration not stated),79 to 81 °C
6,COC(=O)Nc1cn2cc(Sc3ccccn3)ccc2n1,230 to 236 °C
7,O=CNCCCCCCO,43.5 to 45 °C
8,Nc1ccc2nc(N3CCOCC3)nn2c1,165 °C
9,CC(=O)CC1(C)C=NC=CN1c1ccccc1 (configuration not stated),67 to 68 °C
10,O=S1CC2CC(CN(Cc3ccccc3)C2)C1 (configuration not stated),137 to 138 °C
11,Clc1cncc(Cl)c1C1=NC(c2ccc(Br)cc2)CO1 (configuration not stated),102 to 103 °C
12,Cc1cc(C)c(N[C@@H](C)C(=O)O)c(C)c1,318 to 320 °C
13,O=[N+]([O-])c1cc(Br)cc2[nH]c(CCl)nc12,148 to 150 °C
14,COC(=C(C#N)C(=O)C(C)(C)C)c1ccc(Cl)cc1[N+](=O)[O-],130 to 131 °C
15,Cc1oc(=O)c(Nc2ccc(I)cc2)nc1Cl,203 to 205 °C
16,O=[N+]([O-])c1ccc(OCc2ccc3ccccc3n2)cc1,142 to 143 °C
17,COC(=O)c1cccc2c1nc(-c1c(F)cccc1F)n2Cc1c(F)cccc1F,184 to 186 °C
18,CON=C(C(=O)OC)c1cccs1,106 °C
19,COc1cc(OC)cc(C(=O)NC(NC(=NC#N)Nc2cccnc2OC)C(C)(Cl)Cl)c1 (configuration not stated),198 to 199 °C
20,ONC1CCn2c1cc1ccccc12 (configuration not stated),159 to 161 °C
21,Cc1cc(SC(C)C)c(NC(=O)CN2CCN(CCSc3nc4ccccc4[nH]3)CC2)c(SC(C)C)n1,186 to 188 °C
22,CC(Br)c1cc2ccccc2s1 (configuration not stated),53 °C
23,Cc1ccc(-c2nc(N)nc(N)c2[N+](=O)[O-])o1,196 to 197 °C
24,CCSc1nc(=O)n(C(=O)Nc2cccc(Cl)c2)s1,168 °C
25,CCCCCCCCCCCCCCCCCC1OC1C (configuration not stated),40 °C
26,O=C1CNN(Cc2cccc(C(F)(F)F)c2)C(=O)N1,152 °C
27,Cc1cc(C(O)(C(F)(F)F)C(F)(F)F)cc(C)c1OCCN,167 to 169 °C

# Continued, values first:
row,melting point,Compound
1,160 to 173 °C,CCCc1c(C)c2ccc(O)cc2oc1=O
2,111 to 114 °C,CN(C)c1cc2c3c(cccc3c1)C(=O)N(CCCCCC(=O)O)C2=O
3,58 to 70 °C,CCOC(=O)CCc1c(C)c2c(O)cc(C(C)CCCc3ccccc3)cc2oc1=O (configuration not stated)
4,115 to 118 °C,Cc1ccc(C(C)C)c(OCCN(C)Cc2c(C)c(O)c(C)c(C)c2OCCO)c1
5,98 to 101 °C,CCOC(=O)C1=C(C)NC(C)=C(C(=O)OCCSC(C)=O)C1c1cccc([N+](=O)[O-])c1 (configuration not stated)
6,240 to 242 °C,O=C(NCC1CC1)c1c(NC(=O)c2cc(C(F)(F)F)nn2-c2ncccc2Cl)ccc2cn[nH]c12
7,108 to 112 °C,CC(=O)Nc1ccccc1C(=O)NCCN1[C@H](C)Cc2ccsc2[C@@H]1C (relative stereo)
8,199 to 202 °C,CC(=O)NCC1CN(c2cc(F)c(N3CCN(C(=O)COC(=O)c4ccc(N(C)C)cc4)CC3)c(F)c2)C(=O)O1 (configuration not stated)
9,169 to 170 °C,COc1ccc(C2=NN(C3CCN(C(=O)CS(C)(=O)=O)CC3)C(=O)[C@@H]3CC=CC[C@H]23)cc1OC
10,163 to 167 °C,Cn1nc(-c2cccc(-n3ncc4cc(C(C)(C)C)cc(F)c4c3=O)c2CO)cc(Nc2cnc(CNC3CCC3)cn2)c1=O
11,135 to 141 °C,CCCc1nc2c(N)nc3cc(-c4ccccc4)ccc3c2n1CC(C)(C)NS(C)(=O)=O
12,79 to 80 °C,CCOC(=O)CC[C@H](NC(=O)c1csc(CCCc2coc3nc(N)nc(N)c23)c1)C(=O)OCC
13,121 to 122 °C,Cc1c(O[Si](C)(C)C(C)(C)C)cc(O[Si](C)(C)C(C)(C)C)c(C)c1C(=O)OCc1ccc([N+](=O)[O-])cc1
14,226 °C,Cc1cc(-c2cnn3c(C(F)(F)F)cc(-c4ccc(Br)cc4)nc23)ccn1
15,91.5 to 93.3 °C,CCCCCC(COc1ccc(C(=O)O)cc1)c1ccc2c(c1)OCCC2(C)C (configuration not stated)
16,137 °C,CCCc1nc2ccnn2c(Cl)c1Cc1ccc(-c2ccccc2C#N)cc1
17,142 to 144 °C,Cc1c(NC(=O)CC(C)(C)C)c(C)c2c(c1-c1cccnc1)OCC2c1ccc(C(C)C)cc1 (configuration not stated)
18,233 to 235 °C,COc1cc2ncnc(C3C(=O)N(C)c4ccccc43)c2cc1OC (configuration not stated)
19,127 to 128 °C,CCOC(=O)c1cc(Cl)cc2c(=O)c(C)c(-c3ccccc3)oc12
20,260 °C,Cc1cc(-c2cc(C(F)(F)F)nc(-n3cnc(-c4ccc(S(N)(=O)=O)s4)c3)n2)ccc1C(F)(F)F
21,> 300 °C,CCOC(=O)c1cnc2c(O)nccn2c1=O

row,melting point,Compound
1,230 °C,COc1ccc(N2CCN(c3ccc(-n4c(C)nn(CC(=O)c5ccc(Cl)cc5)c4=O)cc3)CC2)cc1
2,211 to 212 °C,Cc1c(C(=O)N(C)c2ccc(N3CCC(O)CC3)c(C#N)c2)cnn1-c1ccc(F)cc1
3,154 to 156 °C,COc1cc(N)c(Cl)cc1C(=O)NCC1CCN(CCCCC(=O)c2ccc(O)cc2)CC1
4,175 to 178 °C,CCCc1nc2c(N)nc3cc(OCc4ccccc4)ccc3c2s1
5,100 to 101 °C,CC(C)C[C@@H]1NC(=O)O[C@H]1CCS(=O)(=O)CCc1ccccc1
6,128 to 129 °C,CCC(C)(C)NCc1nc2sc3c(c2c(-c2ccc(OC)c(OC)c2)c1Cl)CCN(Cc1ccccc1)C3
7,146 to 147 °C,CCC(=O)Oc1ccc(C(=O)Nc2ccc3cc(CN4CCCC4)cnc3c2C)cc1
8,62.5 to 64.1 °C,CCCCCCn1c2ccccc2c2ccccc21
9,150 to 154 °C,CCN(CC)C(=O)CCC1CCN(Cc2cnc3cc(NC(=O)c4ccc(-c5ccc(F)cc5)cc4)c(C)cc3c2)CC1
10,208 to 209 °C,O=C(Nc1ccc(Br)cc1)N1COC2(c3ccc(F)cc3)Cc3cc(F)ccc3C2=N1 (configuration not stated)
11,226 to 228 °C,CCCCc1nc2c(N)nc3ccccc3c2n1CCS(C)(=O)=O
12,74 °C,COc1ccc(-c2ccc(OC3SCC(OC(C)=O)C(OC(C)=O)C3OC(C)=O)cn2)cn1 (configuration not stated)
13,144 to 146 °C,CCCCCOc1cc(C(=O)O)cc([N+](=O)[O-])c1-c1ccccc1
14,258 to 260 °C,Cc1c(Cc2ccccc2)c(=O)oc2cc(O)cc(O)c12
15,68 to 70 °C,CCCc1c(OCCCOc2ccc3c(c2CCC)OC(CCC(=O)OCC)CC3)ccc(C(C)=O)c1O (configuration not stated)
16,105 to 106 °C,COCOc1ccccc1-c1cc(-c2ccc(OC)c(C(=O)OC)c2)c(C#N)c(NC(=O)c2cccs2)n1
17,201 to 202 °C,CC(C)n1c(CC[C@@H]2C[C@H](CC(=O)OC(C)(C)C)OC(C)(C)O2)c(-c2ccc(F)cc2)c(-c2ccccc2)c1C(N)=O
18,150 °C,CN1CCN(C(=O)CCOC2c3ccccc3C(=O)N2c2ccc3ccc(Cl)nc3n2)CC1 (configuration not stated)
19,172 °C,O=C(COc1cc(-c2ccc([N+](=O)[O-])cc2)nc2ccccc12)N1CCOCC1
20,270 °C,COc1ccccc1-n1c(=O)[nH]c2c(C(N)=O)nc(-c3ccc4nc(C)[nH]c4c3)nc21
21,187 to 188 °C,CC(C(=O)O)C(=O)Nc1cccc(S(=O)(=O)n2c(=O)[nH]c3cc(Cl)ccc3c2=O)c1 (configuration not stated)
